Here are results for 3 compounds from patent US9856228B2, “Peptidyl nitril compounds as dipeptidyl peptidase I inhibitors” (Prozymex A/S, priority 2013, dated 2018).

Several values for one entry are separate records, joined by “and”; a condition that tells them apart may be missing. Identical values can stand only once.

One data set addresses T1, CYP2D6 (Homo sapiens, UniProt P10635).
T1 construct: incubated with pooled Human Liver Microsomes (0.25 mg protein/mL); from tissue; host or cells: pooled human liver microsomes
Put plainly: Test for inhibition of CYP2D6 in Human Liver Microsomes. Type of data set: in vitro ADME. The following applies: pooled Human Liver Microsomes, 7 μM bufuralol; read-out: CYP inhibition IC50 CYP2D6. The procedure:
(§1) The test for inhibition of CYP2C9, CYP2D6 and CYP3A4 enzymes was performed by Absorption System, Exton, Pa. 19341, USA according to the procedure described below.
(§2) The IC50 values of Example 1 of WO2012119941 (PZ1024) and the compound of the present invention (PZ1025) for CYP enzymes (CYP2C9, CYP2D6, and CYP3A4) in Human Liver Microsomes were measured. […] After a period of incubation, the samples were treated by the addition of protein precipitation solvent and centrifuged. CYP enzyme activities were measured by determining the formation of the CYP probe metabolites by LC-MS/MS, and the IC50 (the concentration of an inhibitor causing 50% inhibition) was estimated using GraphPad Prism® software by fitting the experimental data (percent of control activity remaining at each concentration of test compound) to a sigmoidal model and non-linear regression analysis.
(§3) The CYP enzyme activities in the Human Liver Microsomes were verified in parallel by determining the inhibition of positive inhibitors on the CYP enzyme activities (sulfaphenazole, quinidine and ketoconazole for CYP2C9, CYP2D6, and CYP3A4, respectively).

The nature of data set [1]: Test for metabolic stability, Mouse Liver Microsomes. Conditions: for Metabolic stability mouse microsomes t½: mouse liver microsomes 1.0 mg/mL; for Metabolic stability mouse microsomes t½ / half-life at 5 μM: 5 μM test compound, NADPH; for half-life at 5 μM: mouse, liver microsomes, pH 7.4, mouse liver microsomes 1.0 mg/mL, read-out: Metabolic stability mouse microsomes t½. Type of data set: in vitro ADME. The procedure: (§4) The test for metabolic stability was performed by Absorption System, Exton, Pa. 19341, USA.
(§5) The test compound (DPPI inhibitor) was dissolved in 100% DMSO at a concentration of 10 mM. The reaction mixture, consisted of Mouse or Human Liver Microsomes (1.0 mg/mL), 1 mM NADPH, 100 nnM Potassium Phosphate, pH 7.4, 10 mM Magnesium Chloride and test compound at a concentration of 5 μM.
(§6) An aliquot of the reaction mixture (without cofactors) was incubated in a shaking water bath at 37° C. for 3 minutes. Another aliquot of the reaction mixture was prepared as the negative control. The test compound was added into both the reaction mixture and the negative control at a final concentration of 5 μM.
(§7) The reaction was initiated by the addition of NADPH to 1 mM (not into the negative controls) and then incubated in a shaking water bath at 37° C. Aliquots (100 μL) were withdrawn at 0, 10, 20, 30, and 60 minutes or at 0, 15, 30 and 60 minutes and combined with 900 μL of ice-cold 50/50 acetonitrile/dH2O to terminate the reaction. A control (testosterone) was run simultaneously with the test compound in a separate reaction. LC/MS/MS is used to determine the peak area response ratio (peak area corresponding to test compound or control divided by that of an analytical internal standard). The natural log of the percent remaining was plotted versus time. A linear fit was used to determine the rate constant. The fit was truncated if the percent remaining of test compound was less than 10%. The elimination half-lives associated with the disappearance of the test and control compounds were determined to compare their relative metabolic stability.
For orientation: Liver microsomes are vesicles of endoplasmic reticulum, rich in cytochrome P450 enzymes.

Another data set deals with T2, CYP3A4 (Homo sapiens, UniProt P08684).
T2 construct: incubated with pooled Human Liver Microsomes (0.25 mg protein/mL); from tissue; host or cells: pooled human liver microsomes
In words: Test for inhibition of CYP3A4 in Human Liver Microsomes. Type of data set: in vitro ADME. The following applies: pooled Human Liver Microsomes, 75 μM testosterone; read-out: CYP inhibition IC50 CYP3A4. The procedure: as §1, §2, §3

Data set [2] is described as follows: Test for metabolic stability, Human Liver Microsomes. Type of data set: in vitro ADME. The following applies: for Metabolic stability human microsomes t½: human liver microsomes 1.0 mg/mL; for Metabolic stability human microsomes t½ / half-life at 5 μM: 5 μM test compound, NADPH; for half-life at 5 μM: human, liver microsomes, pH 7.4, human liver microsomes 1.0 mg/mL, read-out: Metabolic stability human microsomes t½. The procedure:
as §4, §5, §6, §7

The subject of data set [3] is human lymphoblastoid TK6 cells. In words: Test for cytotoxicity (relative cell proliferation, optical absorbance). Type of data set: cell-based. The following applies: for highest concentration that does not cross the significance threshold: TK6 strains GenM-T01 and GenM-C01, 24 hour and 48 hour time points, threshold 80% relative cell density. The procedure:
The test for cytotoxicity was performed by Cyprotex Discovery Ltd. 15 Beech lane, Macclesfield, Cheshire, SK10 2DR, UK.
Two strains of cultured human lymphoblastoid TK6 cells was used, GenM-T01 and GenM-C01. A dilution series of each test compound was generated in a 96-well, black microplate with an optically clear base. The plates was analysed at 24 hour and 48 hour time points using a microplate reader, that provides measurements of light absorbance for cells and solutions in the microplates wells.
Cytotoxicity was assessed using relative cell proliferation, quantified using optical absorbance. Cytotoxic compounds are those which reduce relative cell density below a significance threshold set at 80% compared to the vehicle-treated control, at one or more test concentrations.

Another data set concerns the target T3, CYP2C9 (Homo sapiens, UniProt P11712).
T3 construct: incubated with pooled Human Liver Microsomes (0.25 mg protein/mL); from tissue; host or cells: pooled human liver microsomes
In words: Test for inhibition of CYP2C9 in Human Liver Microsomes. Type of data set: in vitro ADME. Conditions: pooled Human Liver Microsomes, 6 μM diclofenac; read-out: CYP inhibition IC50 CYP2C9. The procedure:
as §1, §2, §3

In data set [4] the target is T4, DPPI (Homo sapiens, UniProt P53634). In words: Human DPPI inhibition assay (Gly-Phe-paranitroanilide substrate). The format is biochemical. More on the design: purchased UNIZYME Laboratories A/S. Conditions: Table 1 potency; assay not given. The protocol: Using this assay, the IC50 value of the compound of the invention may be determined using Gly-Phe-paranitroanilide as a DPPI specific substrate.
Assay buffer: 20 mM citric acid (2.1 g citric acid), 150 mM NaCl (4.4 g NaCl) and 2 mM EDTA (370 mg EDTA) was dissolved in 500 mL H2O, and pH was adjusted to 4.5 with HCl.
Substrate: Gly-Phe-paranitroanilide (Sigma Aldrich; Cat. No G0142) was used as the substrate for determination of IC50 values. Km was 2.2 mM. The substrate was solubilized in dinnethylformamid to give a 0.2-0.5 M stock solution, which was then further diluted with stirring in assay buffer to a final concentration of 1 mM.
DPPI: Human DPPI (obtained from UNIZYME Laboratories A/S, DK-2970 Høsholm, Denmark) was stored at −20° C. in a buffer containing 2.5 mM Na-phosphate, 150 mM NaCl, 2 mM cysteamine, 50% glycerol, pH 7.0 at a concentration of 1-2 mg/mL (5-10 μM). This stock solution was diluted 500-1000 times in assay buffer to a concentration of 10-20 nM.
Assay conditions: The assay was performed in 96-well plates. Diluted enzyme (25 μL) was added to the well, followed by 25 μL of test substance in varying concentrations, and the solution was mixed. […] The absorption was measured at 405 nm at 37° C. for every 90 seconds for 12 minutes or every 20 seconds for 4 minutes. […] IC50 was determined using a 4-parameter logistic equation in a non-linear curve fitting routine.

Data set [5] addresses T4, DPPI. In words: Cell based DPPI inhibition assay (neutrophil elastase activity in U937 cells). The following applies: 24 hours, elastase activity readout. The arrangement: endogenous in cells; host or cells: U937 cells. The protocol:
Using the cell based assay described below, the biological activity of the compounds of the invention or other DPPI inhibitors may be determined.
Neutrophil elastase enzymatic activities in U937 cells grown in the presence of DPPI inhibitors were measured by methods modified from Méthot N; Rubin J; Guay D; Beaulieu C; Ethier D; Reddy T J; Riendeau D and Percival M D (2007) 3 Biol Chem, 282, 20836-20846. U937 cells were propagated in culture media (RPMI 1640, supplemented with 10% FBS, 10 mM Hepes, 1 mM sodium pyrovate, 100 units/ml of each of penicillin and streptomycin). Cells were seeded in 12-well plates at 0.4×10^6 cells/ml in volumes of 1.5 ml per well in the presence of no or increasing concentrations of DPPI inhibitor. 12 points in duplicate in the range of 0.1 nM to 50 μM inhibitor were tested. After 24 hours cells were harvested, washed with PBS and lysed in 20 mM Tris-HCl, pH 7.5, 100 mM NaCl, 0.2% Triton X-100. […]
The activity of neutrophil elastase was determined by measuring the enzymatic release of chromogenic p-nitroaniline from the substrate MetOSuc-Ala-Ala-Pro-Val-pNA, which leads to an increase in absorbance at 405 nm. Assays were carried out in 96-well plates in a final volume of 200 μL at 37° C., and absorbance was measured 8 times during 21-35 minutes using a plate reader. IC50 was determined using a 4-parameter logistic equation in a non-linear curve fitting routine.

T4 sequence (P53634 231-394 limits assumed): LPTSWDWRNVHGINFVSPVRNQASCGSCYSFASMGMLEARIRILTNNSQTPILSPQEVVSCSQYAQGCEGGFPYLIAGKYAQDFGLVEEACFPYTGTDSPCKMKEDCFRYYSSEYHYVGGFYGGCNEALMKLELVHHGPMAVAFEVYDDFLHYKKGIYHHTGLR
T4 sequence (P53634 25-134 limits assumed): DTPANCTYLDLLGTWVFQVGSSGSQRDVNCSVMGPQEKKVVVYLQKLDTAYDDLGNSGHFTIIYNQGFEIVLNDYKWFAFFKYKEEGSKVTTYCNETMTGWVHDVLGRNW
T4 sequence (P53634 395-463 limits assumed): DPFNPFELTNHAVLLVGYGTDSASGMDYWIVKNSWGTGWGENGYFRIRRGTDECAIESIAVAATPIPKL
T2 sequence (P08684 whole entry): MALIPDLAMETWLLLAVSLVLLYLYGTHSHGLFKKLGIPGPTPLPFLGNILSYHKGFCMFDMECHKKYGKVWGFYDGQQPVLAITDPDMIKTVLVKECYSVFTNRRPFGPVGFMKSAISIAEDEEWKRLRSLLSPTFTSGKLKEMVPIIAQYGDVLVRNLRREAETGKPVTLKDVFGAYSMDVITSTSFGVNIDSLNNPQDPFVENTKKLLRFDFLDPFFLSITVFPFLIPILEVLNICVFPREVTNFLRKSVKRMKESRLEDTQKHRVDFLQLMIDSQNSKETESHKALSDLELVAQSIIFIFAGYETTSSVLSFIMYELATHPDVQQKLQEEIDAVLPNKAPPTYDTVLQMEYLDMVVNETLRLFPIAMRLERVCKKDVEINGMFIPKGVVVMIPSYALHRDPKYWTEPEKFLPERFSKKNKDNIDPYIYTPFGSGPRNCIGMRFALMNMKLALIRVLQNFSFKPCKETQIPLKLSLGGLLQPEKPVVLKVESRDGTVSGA
T3 sequence (P11712 whole entry): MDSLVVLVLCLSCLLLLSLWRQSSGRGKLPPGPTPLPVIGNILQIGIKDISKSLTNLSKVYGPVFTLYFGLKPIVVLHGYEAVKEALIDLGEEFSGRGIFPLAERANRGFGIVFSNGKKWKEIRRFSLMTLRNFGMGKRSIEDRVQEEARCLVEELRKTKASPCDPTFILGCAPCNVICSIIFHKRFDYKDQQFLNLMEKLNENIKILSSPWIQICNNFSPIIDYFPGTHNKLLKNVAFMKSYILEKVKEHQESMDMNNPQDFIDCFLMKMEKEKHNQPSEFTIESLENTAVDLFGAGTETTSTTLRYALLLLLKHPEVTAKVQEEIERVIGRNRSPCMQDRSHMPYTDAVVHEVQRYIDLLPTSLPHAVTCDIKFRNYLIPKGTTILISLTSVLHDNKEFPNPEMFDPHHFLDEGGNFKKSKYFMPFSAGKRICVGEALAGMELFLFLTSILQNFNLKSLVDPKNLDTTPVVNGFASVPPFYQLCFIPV
T1 sequence (P10635 whole entry): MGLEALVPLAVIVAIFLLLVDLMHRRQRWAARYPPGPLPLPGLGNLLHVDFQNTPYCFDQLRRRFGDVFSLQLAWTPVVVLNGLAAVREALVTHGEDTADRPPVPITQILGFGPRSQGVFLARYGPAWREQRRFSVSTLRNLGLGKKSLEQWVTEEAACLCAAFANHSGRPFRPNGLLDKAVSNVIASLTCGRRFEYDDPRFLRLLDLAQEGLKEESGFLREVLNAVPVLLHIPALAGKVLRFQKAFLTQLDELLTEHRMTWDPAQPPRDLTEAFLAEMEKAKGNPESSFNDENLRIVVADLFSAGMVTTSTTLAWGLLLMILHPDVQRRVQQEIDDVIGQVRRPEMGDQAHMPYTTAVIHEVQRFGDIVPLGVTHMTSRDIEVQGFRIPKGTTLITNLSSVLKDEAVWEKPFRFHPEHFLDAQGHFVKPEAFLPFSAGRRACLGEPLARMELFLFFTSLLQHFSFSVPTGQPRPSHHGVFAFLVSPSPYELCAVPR

The term IC50 denotes the concentration needed to halve the response being measured. As for `CN1CCN(Cc2ccc(-c3ccc(C[C@@H](C#N)NC(=O)C4(N)CCCCC4)cc3)cc2)CC1` [PZ1024, reference compound], the IC50 at CYP2D6 was 18000 nM; at CYP3A4, > 100000 nM; on CYP2C9, > 100000 nM; against DPPI [4], 37 nM. Moreover, in data set [1], the “Metabolic stability mouse microsomes t½” value is on record as “t½ ≈ 10 min”. Further, the half-life at 5 μM in data set [1] was ~10 min; in data set [2], ~55 min. The “Metabolic stability human microsomes t½” value in data set [2] was “t½ ≈ 55 min”. In addition, the “highest concentration that does not cross the significance threshold” value in data set [3] is 15 µM.

In the case of `CN1CCN(S(=O)(=O)c2ccc(-c3ccc(C[C@@H](C#N)NC(=O)C4(N)CCOCC4)cc3)cc2)CC1` [PZ1032, reference compound], the IC50 against DPPI [5] is ~11 nM. Also, in data set [1], the “Metabolic stability mouse microsomes t½” value was “t½ ≈ 35 min” and the half-life at 5 μM is 35 min. Moreover, in data set [2], the “Metabolic stability human microsomes t½” value is reported as “t½ ≈ 50 min” and the half-life at 5 μM was 50 min.

With `CN1CCN(Cc2ccc(-c3ccc(C[C@@H](C#N)NC(=O)C4(N)CCOCC4)cc3)cc2)CC1` [PZ1025, (S)-4-amino-N-(1-cyano-2-(4′-((4-methylpiperazin-1-yl)methyl)biphenyl-4-yl)ethyl)tetrahydro-2H-pyran-4-carboxamide], the IC50 is > 100000 nM on CYP2D6; 11 nM and ~11 nM at DPPI [5]; > 100000 nM on CYP3A4; > 100000 nM at CYP2C9; 34 nM against DPPI [4]. Further, the “half-life in mouse liver microsomes, times higher than PZ1024” value in data set [1] (PZ1025 versus PZ1024) is “more than 6 times”. The “half-life in mouse liver microsomes, times higher than PZ1032” value in data set [1] (PZ1025 versus PZ1032) was “about 2 times”. Besides, the “Metabolic stability mouse microsomes t½” value in data set [1] was “t½ ≈ 65 min”. Further, the half-life at 5 μM in data set [1] was ~65 min; in data set [2] it was > 300 min. For the same compound, the “half-life in human liver microsomes, times higher than PZ1024” value in data set [2] (PZ1025 versus PZ1024) was “more than 5 times”. Also, in data set [2] (PZ1025 versus PZ1032), the “half-life in human liver microsomes, times higher than PZ1032” value is “more than 5 times”. For the same compound, in data set [2], the “Metabolic stability human microsomes t½” value was “t½ > 300 min”. Besides, the “times less toxic than PZ1024” value in data set [3] (PZ1025 versus PZ1024, TK6 cytotoxicity) is listed as “at least 5 times”. In addition, in data set [3], the “highest concentration that does not cross the significance threshold” value is 150 µM.
